Results taken from patent US8247424B2, “Fredericamycin derivatives” (Zentopharm GmbH, priority 2002, dated 2012).

Key:
[1] = test system: 12 cancer cell lines: LCL (H460, lung), MACL (MCF7, breast), LXFL (52L, lung), LXFA (629L, lung), MEXF (462NL, melanoma), MEXF (514L, melanoma), MAXF (401NL …); assay: Biological activity against 12 cancer cell lines, efficacy (IC70) averaged over all cell lines; format: cell-based; settings: averaged over all 12 cancer cell lines, 5 test concentrations;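 also: panel also covers renal lines RXF 944L and RXF 486L, uterine UXF 1138L, and prostate lines PRXF PC3M and PRXF 22RV1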
Procedure: LCL (H460, lung), MACL (MCF7, breast), LXFL (52L, lung), LXFA (629L, lung), MEXF (462NL, melanoma), MEXF (514L, melanoma), MAXF (401NL, breast), RXF (944L, renal), RXF (486L, renal), UXF (1138L, uterus), PRXF (PC3M, prostate), PRXF (22RV1).

[2] = Water solubility of the fredericamycin derivatives; format: physicochemical; settings: 0.9% NaCl solution, pH 7
Text: The water solubility of the various fredericamycin derivatives can be determined in a 0.9% NaCl solution with a pH of 7.

[3] = Water solubility of the fredericamycin derivatives; format: physicochemical; settings: statement in the synthesis text, medium not given

Row | Molecule | IC70 [1] | water solubility [2] | water solubility compared to fredericamycin (1) [3]
1 | (8S)-5-chloro-4′,6′,9′-trimethoxy-2-methoxy-3-[(1E,3E)-penta-1,3-dienyl]-6,7-dihydrospiro[cyclopenta[g]isoquinoline-8,2′-cyclopenta[b]-naphthalene]-1,1′,3′,5′,8′(2H)-pentone [Example 22] | 8 ng/mL | – | –
2 | (8S)-5-bromo-4′,9,9′-trihydroxy-6′-methoxy-1,1′,3′,5′,8′-pentaoxo-1,1′,2,3′,5′,6,7,8′-octahydrospiro[cyclopenta[g]isoquinoline-8,2′-cyclopenta[b]-naphthalene]-1,1′,3′,5′,8′(2H)-pentone [Example 13] | 5 ng/mL | soluble | –
3 | COC1=CC(=O)c2c(O)c3c(c(O)c2C1=O)C(=O)C1(CCc2cc4cc(C(O)C(O)C(O)C(C)O)[nH]c(=O)c4c(O)c21)C3=O [Example 2, Tri-potassium-1-desoxy-5-C-[(8R)-4′,9,9′-trihydroxy-6′-methoxy-1,1′,3′,5′,8′-pentaoxo-1,1′,2,3′,5′,6,7,8′-octahydrospiro[cyclopenta[g]isoquinoline-8,2′-cyclopenta[b]-naphthalene]-3-yl]pentitol] | – | soluble | significantly higher water solubility
